Data: patent US11510933B2, “Use of Pulsatilla chinensis extract in the preparation of drugs for treatment of viral and/or bacterial diseases” (priority 2018, dated 2022)

Key:
[1] = system: canine renal failure; assay: treatment of canine renal failure; type: in vivo, dogs; settings: 14 days, n = 10
[2] = system: feline parvovirus; assay: treatment of feline parvovirus; type: in vivo, cats; parameters: White blood cell count: unit not given here; settings: 14 days, n = 10
Procedure: Anemoside B4 injection prepared in example 3, with a concentration of 50 mg/mL.
Cats suffering from feline parvovirus are cases received by various pet hospitals in Chengdu.
Cats occasionally having fever, severe vomiting, and diarrhea; the stool changing from gray to yellow and finally to milky white, accompanied by jelly-like mucus; stools liking tomato sauce, smelly and unpleasant; having a lying prone; the number of white blood cells dropping sharply, cold limbs, highly depressed spirit, then shock to death.
Anemoside B4 injection was intravenously injected, 2 mL/time in low-dose group, 4 mL/time in medium-dose group, 8 mL/time in high-dose group, once a day; anemoside B4 injection was intramuscularly injected, 1 mL/time in low-dose group, 2 mL/time in the middle-dose group, 4 mL/time in the high-dose group, twice a day; the treatment was kept for 14 days.

[3] = high-dose, intramuscular injection 4 mL/time (50 mg/mL), twice a day
[4] = high-dose, intravenous injection 8 mL/time (50 mg/mL), once a day
[5] = low-dose, intramuscular injection 1 mL/time (50 mg/mL), twice a day
[6] = low-dose, intravenous injection 2 mL/time (50 mg/mL), once a day
[7] = medium-dose, intramuscular injection 2 mL/time (50 mg/mL), twice a day
[8] = medium-dose, intravenous injection 4 mL/time (50 mg/mL), once a day

C=C(C)[C@@H]1CC[C@]2(C(=O)O[C@@H]3O[C@H](CO[C@@H]4O[C@H](CO)[C@@H](O[C@@H]5O[C@@H](C)[C@H](O)[C@@H](O)[C@H]5O)[C@H](O)[C@H]4O)[C@@H](O)[C@H](O)[C@H]3O)CC[C@]3(C)[C@H](CC[C@@H]4[C@@]5(C)CC[C@H](O[C@@H]6OC[C@H](O)[C@H](O)[C@H]6O[C@@H]6O[C@@H](C)[C@H](O)[C@@H](O)[C@H]6O)[C@@](C)(CO)[C@@H]5CC[C@]43C)[C@H]12 [anemoside B4]
Body temperature [1, 3]: 38.5 ± 0.2 °C
Creatinine [1, 3]: 100 ± 30 µmol/L
Inorganic phosphous [1, 3]: 1.4 ± 0.08 mmol/L
Mortality rate [1, 3]: 40%
Urea [1, 3]: 14.2 ± 0.4 mmol/L
Body temperature [1, 4]: 38.6 ± 0.4 °C
Creatinine [1, 4]: 109 ± 20 µmol/L
Inorganic phosphous [1, 4]: 0.9 ± 0.06 mmol/L
Mortality rate [1, 4]: 20%
Urea [1, 4]: 8.7 ± 0.3 mmol/L
Body temperature [1, 5]: 37.8 ± 0.3 °C
Creatinine [1, 5]: 130 ± 19 µmol/L
Inorganic phosphous [1, 5]: 1.6 ± 0.02 mmol/L
Mortality rate [1, 5]: 60%
Urea [1, 5]: 20.8 ± 0.5 mmol/L
Body temperature [1, 6]: 38.3 ± 0.5 °C
Creatinine [1, 6]: 117 ± 25 µmol/L
Inorganic phosphous [1, 6]: 1.1 ± 0.05 mmol/L
Mortality rate [1, 6]: 40%
Urea [1, 6]: 11.8 ± 0.6 mmol/L
Body temperature [1, 7]: 38.2 ± 0.4 °C
Creatinine [1, 7]: 120 ± 26 µmol/L
Inorganic phosphous [1, 7]: 2.0 ± 0.03 mmol/L
Mortality rate [1, 7]: 50%
Urea [1, 7]: 17.5 ± 0.7 mmol/L
Body temperature [1, 8]: 38.5 ± 0.3 °C
Creatinine [1, 8]: 115 ± 12 µmol/L
Inorganic phosphous [1, 8]: 1.5 ± 0.04 mmol/L
Mortality rate [1, 8]: 30%
Urea [1, 8]: 9.9 ± 0.8 mmol/L
Mortality rate [2, 3]: 50%
White blood cell count [2, 3]: 9.1 ± 0.5 ×10^9
Mortality rate [2, 4]: 40%
White blood cell count [2, 4]: 9.3 ± 0.9 ×10^9
Mortality rate [2, 5]: 90%
White blood cell count [2, 5]: 4.7 ± 0.3 ×10^9
Mortality rate [2, 6]: 80%
White blood cell count [2, 6]: 7.7 ± 0.4 ×10^9
Mortality rate [2, 7]: 70%
White blood cell count [2, 7]: 7.8 ± 0.6 ×10^9
Mortality rate [2, 8]: 60%
White blood cell count [2, 8]: 8.8 ± 0.7 ×10^9
